Reference: ChEMBL document CHEMBL4325834, “De Novo Molecular Design of a Novel Octapeptide That Inhibits In Vivo Melanogenesis and Has Great Transdermal Ability” (J Med Chem, 2018)
Where a SMILES comes first, the peptide text is derived from it.

Tests used:
[1] = Antioxidant activity assessed as DPPH free radical scavenging activity at 80 uM after 30 mins relative to control; type: functional
[2] = Hemolytic activity against human erythrocytes assessed as amount of hemoglobin released from lysed cells up to 150 uM relative to control; type: ADME, cell-based, Erythrocyte; conditions: read-out: Activity
[3] = Antioxidant activity assessed as ABTS radical scavenging activity at 80 uM after 10 mins relative to control; type: functional
[4] = Reducing power of the compound assessed as reducing Fe3+ power at 80 uM using K3Fe(CN)6 in pH 6.6 phosphate buffer relative to control
HaCaT = experiment: Cytotoxicity against human HaCaT cells up to 150 uM by MTT assay relative to control; type: cell-based
Tyrosinase = target: T1, Tyrosinase (Agaricus bisporus, UniProt O42713); experiment: Inhibition of mushroom tyrosinase using L-dopa as substrate assessed as reduction in dopachrome production after 20 mins by spectrophotometry
T1 sequence (O42713 whole entry): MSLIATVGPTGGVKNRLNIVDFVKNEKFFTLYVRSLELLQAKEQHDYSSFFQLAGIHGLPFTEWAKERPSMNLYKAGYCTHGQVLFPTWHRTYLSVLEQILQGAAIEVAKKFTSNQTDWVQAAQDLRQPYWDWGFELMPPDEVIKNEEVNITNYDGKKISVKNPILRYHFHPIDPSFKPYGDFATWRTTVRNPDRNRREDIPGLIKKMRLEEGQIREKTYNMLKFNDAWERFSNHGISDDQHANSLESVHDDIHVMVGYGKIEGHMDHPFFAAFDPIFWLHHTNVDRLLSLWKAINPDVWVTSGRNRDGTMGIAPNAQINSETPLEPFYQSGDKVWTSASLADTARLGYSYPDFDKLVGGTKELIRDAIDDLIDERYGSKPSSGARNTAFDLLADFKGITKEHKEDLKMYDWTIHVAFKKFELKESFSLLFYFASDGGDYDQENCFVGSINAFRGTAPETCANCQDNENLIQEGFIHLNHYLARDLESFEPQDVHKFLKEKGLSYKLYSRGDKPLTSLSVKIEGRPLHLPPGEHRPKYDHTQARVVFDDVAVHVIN

B16 = experiment: Cytotoxicity against mouse B16 cells up to 150 uM by MTT assay relative to control; type: cell-based

Row | Compound | Activity [1] [%] | hemolysis [2] [%] | Activity [3] [%] | Activity [4] | Activity (HaCaT) [%] | IC50 (Tyrosinase) [µM] | Activity (B16) [%]
1 | CC[C@H](C)[C@H](NC(=O)[C@H](CS)NC(=O)[C@@H](NC(=O)[C@@H](NC(=O)[C@H](CCCNC(=N)N)NC(=O)[C@H](C)NC(=O)[C@@H](NC(=O)[C@H](CC(N)=O)NC(=O)[C@@H](NC(=O)[C@H](CCCNC(=N)N)NC(=O)[C@H](Cc1ccccc1)NC(=O)[C@H](CCCNC(=N)N)NC(=O)[C@@H](NC(=O)[C@@H](N)CS)C(C)C)[C@@H](C)O)[C@@H](C)O)[C@@H](C)O)C(C)C)C(=O)N[C@@H](C)C(=O)N1CCC[C@H]1C(=O)O (H-CVRFRTNTARTVCIAP-OH) | 43 | 5 | 36 | 0.18 | 15 | 166 | 13
2 | C[C@H](NC(=O)[C@H](CO)NC(=O)[C@H](CS)NC(=O)[C@H](CO)NC(=O)[C@@H](NC(=O)[C@H](CCCNC(=N)N)NC(=O)[C@@H](N)Cc1ccccc1)[C@@H](C)O)C(=O)N[C@@H](CS)C(=O)O (H-FRTSCSAC-OH) | 73 | 2 | 62 | 0.23 | 7 | 78 | 8
3 | CC[C@H](C)[C@H](NC(=O)[C@H](CS)NC(=O)[C@H](C)NC(=O)[C@@H](NC(=O)[C@H](CCCNC(=N)N)NC(=O)[C@H](C)NC(=O)[C@@H](NC(=O)[C@H](CC(N)=O)NC(=O)[C@@H](NC(=O)[C@H](CCSC)NC(=O)[C@H](Cc1c[nH]c2ccccc12)NC(=O)[C@H](Cc1cnc[nH]1)NC(=O)[C@@H](NC(=O)[C@@H](N)CS)C(C)C)[C@@H](C)O)[C@@H](C)O)[C@@H](C)O)C(=O)N[C@@H](C)C(=O)N1CCC[C@H]1C(=O)O (H-CVHWMTNTARTACIAP-OH) | 21 |  | 82 | 0.34 |  | 176 | 
4 | CC(C)[C@H](NC(=O)[C@H](CO)NC(=O)[C@H](CCCNC(=N)N)NC(=O)[C@H](CS)NC(=O)[C@H](CO)NC(=O)[C@@H](NC(=O)[C@H](CCCNC(=N)N)NC(=O)[C@H](Cc1ccccc1)NC(=O)[C@@H](N)Cc1ccccc1)[C@@H](C)O)C(=O)N[C@@H](CS)C(=O)O (H-FFRTSCRSVC-OH) | 90 | 7 | 58 | 0.28 | 13 | 127 | 9
5 | CC(C)[C@H](NC(=O)[C@H](CCCNC(=N)N)NC(=O)[C@H](Cc1ccccc1)NC(=O)[C@H](CS)NC(=O)[C@H](CCCNC(=N)N)NC(=O)[C@H](CO)NC(=O)[C@@H](N)[C@@H](C)O)C(=O)N[C@@H](CS)C(=O)O (H-TSRCFRVC-OH) | 99 | 1 | 50 | 0.24 | 9 | 106 | 11
6 | CC[C@H](C)[C@H](NC(=O)[C@H](CS)NC(=O)[C@H](CCCNC(=N)N)NC(=O)[C@H](CO)NC(=O)[C@@H](N)[C@@H](C)O)C(=O)N[C@@H](Cc1ccccc1)C(=O)N[C@@H](Cc1ccc(O)cc1)C(=O)N[C@@H](CCCNC(=N)N)C(=O)N[C@@H](CCCNC(=N)N)C(=O)N[C@@H](CCCCN)C(=O)N[C@@H](CCCCN)C(=O)N[C@@H](CS)C(=O)N[C@@H](CO)C(=O)O (H-TSRCIFYRRKKCS-OH) | 55 |  | 85 | 0.21 |  | 153 | 
7 | CC[C@H](C)[C@H](NC(=O)[C@H](C)NC(=O)[C@@H]1CCCN1C(=O)[C@@H](NC(=O)[C@@H](N)Cc1ccccc1)C(C)C)C(=O)N[C@@H](CC(C)C)C(=O)N[C@@H](CS)C(=O)N[C@@H](CO)C(=O)N[C@H](C(=O)N[C@@H](CC(C)C)C(=O)N[C@@H](CCCCN)C(=O)N[C@H](C(=O)N[C@@H](CS)C(=O)O)[C@@H](C)O)[C@@H](C)CC (H-FVPAILCSILKTC-OH) | 74 | 4 | 48 | 0.23 | 11 | 147 | 12
8 | H-TRAFRCVS-OH | 80 | 1 | 56 | 0.25 | 11 | 220 | 10
9 | C[C@@H](O)[C@H](NC(=O)[C@H](CO)NC(=O)[C@H](Cc1ccccc1)NC(=O)[C@@H](N)Cc1ccccc1)C(=O)N[C@@H](CO)C(=O)N[C@@H](CS)C(=O)N[C@@H](CCCNC(=N)N)C(=O)N[C@@H](CO)C(=O)NCC(=O)N[C@@H](CS)C(=O)O (H-FFSTSCRSGC-OH) | 45 |  | 80 | 0.21 |  | 187 | 
10 | CC(C)[C@H](NC(=O)[C@H](CCCNC(=N)N)NC(=O)[C@H](CS)NC(=O)[C@H](CO)NC(=O)[C@H](CCCNC(=N)N)NC(=O)[C@H](Cc1ccccc1)NC(=O)[C@@H](N)Cc1ccccc1)C(=O)N[C@@H](CS)C(=O)O (H-FFRSCRVC-OH) | 95 | 2 | 66 | 0.19 | 5 | 90 | 5
11 | CC(C)[C@H](N)C(=O)N[C@H](C(=O)N[C@@H](CCCCN)C(=O)N[C@@H](CS)C(=O)N[C@@H](CO)C(=O)N[C@@H](Cc1ccccc1)C(=O)N[C@@H](CCCNC(=N)N)C(=O)N1CCC[C@H]1C(=O)NCC(=O)N[C@@H](CO)C(=O)N1CCC[C@H]1C(=O)N[C@@H](C)C(=O)N1CCC[C@H]1C(=O)N[C@@H](CCCNC(=N)N)C(=O)N[C@@H](CS)C(=O)N[C@@H](CCCCN)C(=O)O)C(C)C (H-VVKCSFRPGSPAPRCK-OH) | 56 | 5 | 25 | 0.18 | 10 | 199 | 13
12 | CC[C@H](C)[C@H](NC(=O)[C@H](CS)NC(=O)[C@H](CCCNC(=N)N)NC(=O)[C@H](CO)NC(=O)[C@@H](N)[C@@H](C)O)C(=O)N[C@@H](Cc1ccccc1)C(=O)N[C@@H](Cc1ccc(O)cc1)C(=O)N[C@@H](CCCNC(=N)N)C(=O)N[C@@H](CCCNC(=N)N)C(=O)N[C@@H](CS)C(=O)N[C@H](C(=O)N[C@@H](CS)C(=O)N[C@@H](CO)C(=O)O)C(C)C (H-TSRCIFYRRCVCS-OH) | 60 | 21 | 61 | 0.24 | 29 | 128 | 27
